The nature of the data set: Solubility of toremifene citrate in solvent (reference). Format: physicochemical.

Where a name gives a salt, the structure may show the parent alone. Read-outs that look alike come from different tables or passages of the source.

With `CN(C)CCOc1ccc(/C(=C(/CCCl)c2ccccc2)c2ccccc2)cc1` [toremifene citrate], the solubility (0.1 M HCl, simulated gastric fluid, read-out: Solubility in 0.1 M HCl) was roughly 30 µg/mL and the solubility (ethanol, organic solvent or mixture, read-out: Solubility in ethanol) is roughly 3000 µg/mL.

The record behind these values is patent US6887888B2, “Soluble compositions of triphenylethylene antiestrogens” (Orion Corporation, priority 1998, dated 2005).
